Experimental findings from ChEMBL document CHEMBL1133672, “Replacement of glycine with dicarbonyl and related moieties in analogues of the C-terminal pentapeptide of cholecystokinin: CCK(2) agonists displaying a novel binding mode” (J Med Chem, 2000) are described below.

In assay [1] the target is T1, Cholecystokinin receptor type A (Cavia porcellus, UniProt Q63931).
T1 sequence (Q63931 whole entry): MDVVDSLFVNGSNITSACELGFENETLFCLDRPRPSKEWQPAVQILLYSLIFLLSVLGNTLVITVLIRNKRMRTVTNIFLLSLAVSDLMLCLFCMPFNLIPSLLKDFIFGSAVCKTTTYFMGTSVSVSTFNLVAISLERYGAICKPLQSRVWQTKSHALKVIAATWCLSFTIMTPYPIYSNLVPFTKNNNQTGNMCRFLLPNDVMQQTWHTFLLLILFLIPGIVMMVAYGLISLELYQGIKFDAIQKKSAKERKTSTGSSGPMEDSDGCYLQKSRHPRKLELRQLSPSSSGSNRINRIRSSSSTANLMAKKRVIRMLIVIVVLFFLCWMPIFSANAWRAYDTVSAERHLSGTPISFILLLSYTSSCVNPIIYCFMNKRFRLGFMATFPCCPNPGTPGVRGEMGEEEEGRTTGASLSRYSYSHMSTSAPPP
Put plainly: Affinity against Cholecystokinin type A receptor on guinea pig pancreatic membranes.

Assay [2] concerns the target Gastrin/cholecystokinin type B receptor (Cavia porcellus). Nature of the assay: Binding affinity against cholecystokinin type B receptor on guinea pig cortex.
Assay [3] concerns the target T2, Gastrin/cholecystokinin type B receptor (Rattus norvegicus, UniProt P30553).
T2 sequence (P30553 whole entry): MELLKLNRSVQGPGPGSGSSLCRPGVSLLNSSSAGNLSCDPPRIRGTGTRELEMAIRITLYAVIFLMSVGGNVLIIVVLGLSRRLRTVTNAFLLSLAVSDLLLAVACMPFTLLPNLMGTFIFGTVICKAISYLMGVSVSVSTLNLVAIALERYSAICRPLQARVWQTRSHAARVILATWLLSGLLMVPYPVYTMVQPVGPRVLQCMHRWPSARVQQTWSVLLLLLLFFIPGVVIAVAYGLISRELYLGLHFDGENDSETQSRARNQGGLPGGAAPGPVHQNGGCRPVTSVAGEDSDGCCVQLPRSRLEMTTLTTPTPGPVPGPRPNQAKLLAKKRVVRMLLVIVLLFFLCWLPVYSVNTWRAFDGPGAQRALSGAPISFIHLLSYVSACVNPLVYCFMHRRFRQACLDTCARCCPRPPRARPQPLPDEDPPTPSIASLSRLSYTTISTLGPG
Put plainly: Compound was tested for binding affinity against Cholecystokinin type B receptor expressed in CHO cells on the rat brain. The class given is cell-based.

Assay [4] concerns the target T2, Gastrin/cholecystokinin type B receptor. Put plainly: Affinity against Cholecystokinin type B receptor expressed in CHO cells on rat brain. It counts as functional, cell-based.

Numbered stars: 1 amine (or outer) side, 2 acyl side, 3 side chain; on linkers, the order of the positions; unused ones are H or OH. Square brackets hold non-standard residues; d marks the D form. Peptide text beside a SMILES is read from it. * marks the point of attachment. NMeNle = CCCC[C@H](NC)C(=O)O; Suc = O=C(CCC(=O)[*:2])[*:1]; Malonamoyl = NC(=O)CC(=O)*; X3 = O=C(CS(=O)(=O)O)*; Boc = CC(C)(C)OC(=O)*; X2 = COC(=O)CC(=O)*; βAla = NCCC(=O)O Some results are limits rather than exact numbers.

For orientation: Ki means the dissociation constant of the complex between target and ligand, obtained from inhibition or displacement. Broadly, the EC50 is the concentration at which the effect is half-maximal.

In the case of `CCCC[C@@H](C(=O)N[C@@H](CC(=O)O)C(=O)N[C@@H](Cc1ccccc1)C(N)=O)N(C)C(=O)[C@@H](N)Cc1c[nH]c2ccccc12` (H-W[NMeNle]DF-NH2), in assay [1], the Ki was more than 3000 nM.

Take `CCCC[C@@H](C(=O)N[C@@H](CC(=O)O)C(=O)N[C@@H](Cc1ccccc1)C(N)=O)N(C)C(=O)[C@H](Cc1c[nH]c2ccccc12)NC(=O)OC(C)(C)C` (Boc-W[NMeNle]DF-NH2): the results for the Ki in assay [2], in assay [1] and in assay [3] were 0.8 nM, more than 5000 nM and 2.6 nM, respectively.

The compound `CCCC[C@@H](C(=O)N[C@@H](CC(=O)O)C(=O)N[C@@H](Cc1ccccc1)C(N)=O)N(C)C(=O)[C@H](Cc1c[nH]c2ccccc12)NC(=O)[C@H](C)N` yielded a Ki in assay [1] of more than 3000 nM.

Take `CCCC[C@@H](C(=O)N[C@@H](CC(=O)O)C(=O)N[C@@H](Cc1ccccc1)C(N)=O)N(C)C(=O)[C@H](Cc1c[nH]c2ccccc12)NC(=O)CS(=O)(=O)O` (X3-W[NMeNle]DF-NH2): the EC50 in assay [4] was 0.56 nM.

The compound `CCCC[C@@H](C(=O)N[C@@H](CC(=O)O)C(=O)N[C@@H](Cc1ccccc1)C(N)=O)N(C)C(=O)[C@H](Cc1c[nH]c2ccccc12)NC(=O)CC(N)=O` (Malonamoyl-W[NMeNle]DF-NH2) had a concentration giving a half-maximal response (EC50) in assay [4] of 1.64 nM. Further, in assay [1], the affinity, expressed as Ki, was 22800 nM.

For `CCCC[C@@H](C(=O)N[C@@H](CC(=O)O)C(=O)N[C@@H](Cc1ccccc1)C(N)=O)N(C)C(=O)[C@H](Cc1c[nH]c2ccccc12)NC(=O)[C@@H](C)N`, the Ki in assay [1] was more than 3000 nM.

In assay [1], `CCCC[C@H](NC(=O)[C@H](Cc1c[nH]c2ccccc12)NC(=O)[C@H]1CCCCNC(=O)C[C@H](NC(=O)OC(C)(C)C)C(=O)N[C@H](Cc2ccc(OS(=O)(=O)O)cc2)C(=O)N[C@@H](CCCC)C(=O)N1)C(=O)N[C@@H](CC(=O)O)C(=O)N[C@@H](Cc1ccccc1)C(N)=O` came in with a Ki of 2900 nM.

`CCCC[C@@H](C(=O)N[C@@H](CC(=O)O)C(=O)N[C@@H](Cc1ccccc1)C(N)=O)N(C)C(=O)[C@H](Cc1c[nH]c2ccccc12)NC(=O)CC(=O)OC` (X2-W[NMeNle]DF-NH2) showed an EC50 in assay [4] of 2 nM.

`CCCC[C@@H](C(=O)N[C@@H](CC(=O)O)C(=O)N[C@@H](Cc1ccccc1)C(N)=O)N(C)C(=O)[C@H](Cc1c[nH]c2ccccc12)NC(=O)CCC(=O)O` (Suc-W[NMeNle]DF-NH2): the Ki in assay [1] was more than 3000 nM.

In turn, `CCCC[C@@H](C(=O)N[C@@H](CC(=O)O)C(=O)N[C@@H](Cc1ccccc1)C(N)=O)N(C)C(=O)[C@H](Cc1c[nH]c2ccccc12)NC(=O)CCNC(=O)OC(C)(C)C` ({Boc-βAla}-W[NMeNle]DF-NH2) returned a Ki in assay [1] of 4620 nM.

Take `C[C@@]1(Cc2c[nH]c3ccccc23)NC(=O)CCCCCCC[C@@H](C(=O)N[C@@H](CC(=O)O)C(=O)N[C@@H](Cc2ccccc2)C(N)=O)NC1=O`: in assay [1], affinity was put at a Ki of 2210 nM.

As for `CCCC[C@@H](C(=O)N[C@@H](CC(=O)O)C(=O)N[C@@H](Cc1ccccc1)C(N)=O)N(C)C(=O)[C@H](Cc1c[nH]c2ccccc12)NC(=O)CN` (H-GW[NMeNle]DF-NH2), the Ki in assay [1] was more than 3000 nM.
